{"source": "patent US20260265239A1", "about": "“CRYSTAL FORM OF 2,6-PIPERIDINEDIONE COMPOUND, AND PREPARATION METHOD THEREFOR AND USE THEREOF” (ZHANGZHOU PIEN TZE HUANG PHARMACEUTICAL CO., LTD., priority 2023, published 2026)", "key": {"[1]": {"assay": "Hygroscopicity study by dynamic vapor sorption (DVS)", "type": "physicochemical", "description": "• Instrument model: DVS Intrinsic Plus Dynamic Vapor Sorption Analyzer from SMS (Surface Measurement Systems) • Test conditions: The sample (10 to 20 mg) is placed in a DVS sample pan for testing.\nThe detailed DVS parameters are as follows: • Temperature: 25° C. • Equilibrium: dm/dt=0.002%/min (minimum: 10 min, maximum: 180 min) • Drying: 120 min at 0% RH • RH (%) test steps: 10% • RH (%) test step range: 0%-95%-0%\nThe hygroscopicity evaluation is classified as follows:\n• DVS Intrinsic Plus Dynamic Vapor Sorption Analyzer from SMS (Surface Measurement Systems)."}, "[2]": {"assay": "Stability in solvents: anti-solvent addition, XRPD", "type": "physicochemical", "settings": "anti-solvent Water", "description": "(§1) • Instrument model: PANalytacal X-ray Powder Diffractometer • Test method: Approximately 10 to 20 mg of the sample is used for XRPD detection.\n(§2) The detailed XRPD parameters are as follows: • X-ray tube: Cu, kα, (λ=1.540598 Å, λ=1.544426 Å). • X-ray tube voltage: 45 kV, X-ray tube current: 40 mA • Divergence slit: ⅛° • Scan mode: continuous • Scanning range (°2Theta): 3-40 • Scanning time per step (s): 46.7 • Scanning step size (°2Theta): […] • Test duration: approximately 5 min\nWhile stirring (1000 rpm), the anti-solvent listed in the table below was added dropwise to the clear solution until solids precipitated, or until the total volume of anti-solvent reached 10 mL. Samples without precipitation were stirred in suspension at 5° C., while clear samples were transferred to −20° C. for suspension stirring. If still clear, the samples were transferred to room temperature for volatilization. The precipitated solids were isolated and subjected to XRPD testing."}, "[3]": {"assay": "Stability in solvents: suspension stirring at room temperature, XRPD", "type": "physicochemical", "settings": "acetone, tetrahydrofuran, 1,4-dioxane, methanol, ethanol, isopropanol, water and mixed solvents with water", "description": "as §1, §2\nThe resulting suspensions were magnetically stirred at room temperature (1000 rpm) for 3 days, then centrifuged to collect the solids, which were subjected to XRPD testing."}, "[4]": {"assay": "Pressure (mechanical) stability, XRPD", "type": "physicochemical", "settings": "350 MPa", "description": "as §1, §2\nThe sample in the mold was compressed under a pressure of 350 MPa. The solid was collected for XRPD characterization."}, "[5]": {"assay": "Solid stability test under high temperature, high humidity and strong light exposure", "type": "physicochemical", "description": "Samples placed under high-temperature conditions were examined in an electric blast drying oven, while samples placed under high-humidity conditions were examined in a comprehensive drug stability test chamber. Sampling and testing were conducted on the 5th, 10th, and 30th days, and the test results were compared with the initial test results on day 0. Samples placed under strong light exposure conditions were left open, and sampling and testing were performed on the 5th and 10th days, with the test results compared to the initial test results on day 0."}, "[6]": {"assay": "Solid stability test under accelerated conditions", "type": "physicochemical", "from_the_text": "Samples were taken for testing at the 1st, 2nd, and 3rd months, and the test results were compared with the initial test results at day 0."}, "[7]": {"assay": "Solid stability test under long-term conditions", "type": "physicochemical", "from_the_text": "Samples were taken for testing at the 1st and 2nd months, and the test results were compared with the initial test results at day 0."}, "[8]": {"assay": "Pharmacokinetic evaluation in beagle dogs", "type": "in vivo", "settings": "Intragastric administration, 5 mg/kg, listed as Crystal Form A of Compound of Formula (I)", "from_the_text": "Male beagle dogs were selected as the experimental animals in this study. The LC/MS/MS method was employed to quantitatively determine the plasma drug concentrations at different time points after intravenous injection or intragastric administration of the test compound, aiming to evaluate the pharmacokinetic characteristics of the compound of the present disclosure in beagle dogs.\nBeagle dogs (male, 7 to 10 kg, Beijing Mars Biotechnology Co., Ltd.).\nA solution of the test compound was slowly injected intravenously into beagle dogs (fed) via the peripheral vein (vehicle: 5% DMSO/10% Solutol/85% H2O), or administered intragastrically to beagle dogs (fed). For intravenous administration, 0.5 mL of blood was collected from the peripheral vein at 0.083, 0.25, 0.5, 1, 2, 4, 6, 8, and 24 h after administration, placed in EDTA-2K anticoagulant tubes, and centrifuged at 3200 g for 10 minutes at 2 to 8° C. to separate the supernatant. For intragastric administration, 0.5 mL of blood was collected from the peripheral vein at 0.083, 0.25, 0.5, 1, 2, 4, 6, 8, and 24 h after administration, placed in EDTA-2K anticoagulant tubes, and centrifuged at 3200 g for 10 minutes at 2 to 8° C. to separate the supernatant. Plasma drug concentrations were determined by the LC-MS/MS method, and relevant pharmacokinetic parameters were calculated using Phoenix WinNonlin 6.3 or 8.3.5 pharmacokinetic software with non-compartmental model linear-log trapezoidal method."}, "[9]": {"settings": "High Humidity (Room Temperature/Relative Humidity: 92.5%, Open), Day 5"}, "[10]": {"settings": "High Humidity (Room Temperature/Relative Humidity: 92.5%, Open), Day 10"}, "[11]": {"settings": "High Temperature (60° C., Open), Day 5"}, "[12]": {"settings": "High Temperature (60° C., Open), Day 10"}, "[13]": {"settings": "Strong Light Exposure (5000 ± 500 Lux, 90 μw/cm^2, Open), Day 10"}, "[14]": {"settings": "Strong Light Exposure test, Day 10 (Light Exposure Control)"}, "[15]": {"settings": "40° C./75% Relative Humidity, Sealed + Desiccant, 1 month"}, "[16]": {"settings": "40° C./75% Relative Humidity, Sealed + Desiccant, 2 month"}, "[17]": {"settings": "40° C./75% Relative Humidity, Sealed + Desiccant, 3 month"}, "[18]": {"settings": "25° C./60% Relative Humidity, Sealed + Desiccant, 1 month"}, "[19]": {"settings": "25° C./60% Relative Humidity, Sealed + Desiccant, 2 month"}}}
{"molecule": "O=C1CCC(c2noc3ccc4c(NC(=O)CN5CCN(C[C@H]6CC[C@H](n7cc(NC(=O)c8coc(-c9ccnc(NCC%10CC%10)c9)n8)c(C(F)F)n7)CC6)CC5)cccc4c23)C(=O)N1", "note": "(stereo partly shown)", "values": [{"measurement": "crystal form before and after DVS", "setting": "[1]", "result": "no change in crystal form"}, {"measurement": "ΔW (hygroscopic weight gain)", "setting": "[1]; DVS, 25° C. and 80% RH", "result": 3.536, "unit": "%"}, {"measurement": "XRPD Results Anti-Solvent Addition", "setting": "[2]; solvent Dimethyl sulfoxide", "result": "Amorphous"}, {"measurement": "XRPD Results Anti-Solvent Addition", "setting": "[2]; solvent N-Methylpyrrolidone", "result": "Amorphous"}, {"measurement": "stability in solvents (conclusion)", "setting": "[3]", "result": "good stability"}, {"measurement": "stability under compression mold pressure (conclusion)", "setting": "[4]", "result": "good stability"}, {"measurement": "Content", "setting": "[5]; Day 0", "result": 100.0, "unit": "%"}, {"measurement": "Total Impurities", "setting": "[5]; Day 0", "result": 2.4, "unit": "%"}, {"measurement": "Content", "setting": "[5]; [9]", "result": 99.7, "unit": "%"}, {"measurement": "Total Impurities", "setting": "[5]; [9]", "result": 2.4, "unit": "%"}, {"measurement": "Content", "setting": "[5]; [10]", "result": 100.1, "unit": "%"}, {"measurement": "Total Impurities", "setting": "[5]; [10]", "result": 2.5, "unit": "%"}, {"measurement": "Content", "setting": "[5]; [11]", "result": 102.8, "unit": "%"}, {"measurement": "Total Impurities", "setting": "[5]; [11]", "result": 2.5, "unit": "%"}, {"measurement": "Content", "setting": "[5]; [12]", "result": 102.5, "unit": "%"}, {"measurement": "Total Impurities", "setting": "[5]; [12]", "result": 2.5, "unit": "%"}, {"measurement": "Content", "setting": "[5]; [13]", "result": 102.3, "unit": "%"}, {"measurement": "Total Impurities", "setting": "[5]; [13]", "result": 2.6, "unit": "%"}, {"measurement": "Content", "setting": "[5]; [14]", "result": 101.5, "unit": "%"}, {"measurement": "Total Impurities", "setting": "[5]; [14]", "result": 2.4, "unit": "%"}, {"measurement": "stability (conclusion)", "setting": "[5]; high temperature, high humidity, and strong light exposure conditions", "result": "good stability"}, {"measurement": "Content", "setting": "[6]; [15]", "result": 99.3, "unit": "%"}, {"measurement": "Total Impurities", "setting": "[6]; [15]", "result": 2.7, "unit": "%"}, {"measurement": "Content", "setting": "[6]; [16]", "result": 99.5, "unit": "%"}, {"measurement": "Total Impurities", "setting": "[6]; [16]", "result": 2.7, "unit": "%"}, {"measurement": "Content", "setting": "[6]; [17]", "result": 99.1, "unit": "%"}, {"measurement": "Total Impurities", "setting": "[6]; [17]", "result": 2.7, "unit": "%"}, {"measurement": "Content", "setting": "[6]; Day 0", "result": 100.0, "unit": "%"}, {"measurement": "Total Impurities", "setting": "[6]; Day 0", "result": 2.4, "unit": "%"}, {"measurement": "stability (conclusion)", "setting": "[6]; accelerated conditions of 40° C./75% relative humidity", "result": "good stability"}, {"measurement": "Content", "setting": "[7]; [18]", "result": 99.5, "unit": "%"}, {"measurement": "Total Impurities", "setting": "[7]; [18]", "result": 2.8, "unit": "%"}, {"measurement": "Content", "setting": "[7]; [19]", "result": 99.2, "unit": "%"}, {"measurement": "Total Impurities", "setting": "[7]; [19]", "result": 2.9, "unit": "%"}, {"measurement": "Content", "setting": "[7]; Day 0", "result": 100.0, "unit": "%"}, {"measurement": "Total Impurities", "setting": "[7]; Day 0", "result": 2.4, "unit": "%"}, {"measurement": "stability (conclusion)", "setting": "[7]; long-term conditions of 25° C./60% relative humidity", "result": "good stability"}, {"measurement": "Area Under the Drug-Time Curve (0-inf)", "setting": "[8]", "result": 8.18, "unit": "µM·h"}, {"measurement": "Peak Concentration", "setting": "[8]", "result": 0.70, "unit": "µM"}, {"measurement": "Time to Peak Concentration", "setting": "[8]", "result": 5.00, "unit": "h"}]}
